Measurements: patent publication US20230256092A1, “COMBINED USE OF ANTI-CCR8 ANTIBODY AND CHEMOTHERAPEUTIC AGENT” (Shionogi & Co., Ltd., priority 2020, published 2023)

Experiments:
Type in all cases: in vivo, mouse
[1] = tested on: breast cancer-derived 4T1 cells; assay: Example 1: Balb/c mice inoculated with 4T1 cells, carboplatin combination; conditions: antibody 50 μg iv days 5, 8; carboplatin 114 mg/kg iv day 5; single groups 8, 12, 15, 18, 22 days after inoculation, combined from 8 days; Mann-Whitney U
Procedure: (§1) The back of each Balb/c mouse (6 weeks old, female) was intracutaneously inoculated with 2×10^5 breast cancer-derived 4T1 cells (50 μL).
(§2) To an anti-mouse CCR8 antibody single administration group, 50 μg (200 μL) of an anti-mouse CCR8 antibody (clone SA214G2, BioLegend, Inc.) was intravenously administered 5 and 8 days after tumor inoculation, and saline was intravenously administered at a volume of 11.4 mL/kg body weight 5 days after tumor inoculation (N=10). To a carboplatin single administration group, 50 μg (200 μL) of an isotype control antibody (clone LTF-2, Bio X Cell, Inc.) was intravenously administered 5 and 8 days after tumor inoculation, and carboplatin (trade name: PARAPLATIN, Bristol-Myers Squibb Company) at 114 mg/kg body weight was intravenously administered at a volume of 11.4 mL/kg body weight 5 days after tumor inoculation (N=10). […] Tumor volumes were measured every 3 to 4 days from 5 days after tumor inoculation. The tumor volume (mm^3) was measured in long diameter (mm)×short diameter (mm)×short diameter (mm)/2, and a significant difference test based on a Mann-Whitney U method (significance level: P<0.05) was conducted.

[2] = tested on: bladder cancer-derived MB49 cells; assay: Example 4: C57BL/6 mice inoculated with MB49 cells, carboplatin or cisplatin combination; conditions: antibody 50 μg iv days 4, 7; carboplatin 40 mg/kg or cisplatin 3 mg/kg iv day 4; single groups 7, 10, 14, 17, 18 days; carboplatin combination from 10 days, cisplatin combination from 14 days; Mann-Whitney U
Procedure: The back of each C57BL/6 mouse (6 weeks old, male) was intracutaneously inoculated with 2×10^5 bladder cancer-derived MB49 cells (50 μL).
To an anti-mouse CCR8 antibody single administration group, 50 μg (200 μL) of an anti-mouse CCR8 antibody (clone SA214G2, BioLegend, Inc.) was intravenously administered 4 and 7 days after tumor inoculation, and saline was intravenously administered at a volume of 10 mL/kg body weight 4 days after tumor inoculation (N=10).
To a carboplatin single administration group, 50 μg (200 uL) of an isotype control antibody (clone LTF-2, Bio X Cell, Inc.) was intravenously administered 4 and 7 days after tumor inoculation, and carboplatin (trade name: PARAPLATIN, Bristol-Myers Squibb Company) at 40 mg/kg body weight was intravenously administered at a volume of 10 mL/kg body weight 4 days after tumor inoculation (N=10). […]
Tumor volumes were measured every 1 to 4 days from 4 days after tumor inoculation. The tumor volume (mm^3) was measured in long diameter (mm)×short diameter (mm)×short diameter (mm)/2, and a significant difference test based on a Mann-Whitney U method (significance level: P<0.05) was conducted. […]

[3] = tested on: breast cancer-derived 4T1 cells; assay: Example 3: hCCR8-KI (KI/KI) mice inoculated with 4T1 cells, cisplatin combination; conditions: antibody 400 μg iv days 5, 8; cisplatin 8 mg/kg iv day 5; cisplatin single 8, 11, 13, 15, 18, 21, 25, 29 days, combined from 8 days; Mann-Whitney U
Procedure: To an anti-human CCR8 antibody single administration group, 400 μg (200 μL) of an anti-human CCR8 antibody (humanized 10A11 antibody (light chain variable region: IGKV4-1 N53Q+G29R (SEQ ID NO: 59)/heavy chain variable region: IGHV3-15 T94R (SEQ ID NO: 41))) was intravenously administered 5 and 8 days after tumor inoculation, and saline was intravenously administered at a volume of 16 mL/kg body weight 5 days after tumor inoculation (N=10). To a cisplatin single administration group, 200 μL of a control solution (obtained by diluting a buffer solution used for the antibody with saline in line with an antibody dilution ratio) was intravenously administered 5 and 8 days after tumor inoculation, and cisplatin (trade name: RANDA, Nippon Kayaku Co., Ltd.) at 8 mg/kg body weight was intravenously administered at a volume of 16 mL/kg body weight 5 days after tumor inoculation (N=10). […] Tumor volumes were measured every 2 to 4 days from 5 days after tumor inoculation. The tumor volume (mm^3) was measured in long diameter (mm)×short diameter (mm)×short diameter (mm)/2, and a significant difference test based on a Mann-Whitney U method (significance level: P<0.05) was conducted.

[4] = tested on: lung cancer-derived ASB-XIV cells; assay: Example 7: hCCR8-KI (KI/KI) mice inoculated with ASB-XIV cells, cisplatin combination; conditions: antibody 1 mg/kg iv and cisplatin 3 mg/kg iv day 5; 14, 17 and 19 days after tumor inoculation; Mann-Whitney U
Procedure: To an anti-human CCR8 antibody single administration group, an anti-human CCR8 antibody (humanized 10A11 antibody (light chain variable region: IGKV4-1 N53Q+G29R (SEQ ID NO: 59)/heavy chain variable region: IGHV3-15 T94R (SEQ ID NO: 41))) at 1 mg/10 mL/kg body weight and saline at 10 mL/kg body weight were intravenously administered 5 days after tumor inoculation (N=10). To a cisplatin single administration group, a control solution at 10 mL/kg body weight and cisplatin (trade name: RANDA, Nippon Kayaku Co., Ltd.) at 3 mg/10 mL/kg body weight were intravenously administered 5 days after tumor inoculation (N=10). To an anti-human CCR8 antibody and cisplatin combined administration group, an anti-human CCR8 antibody at 1 mg/10 mL/kg body weight and cisplatin at 3 mg/10 mL/kg body weight were intravenously administered 5 days after tumor inoculation (N=10). To a control group, a control solution at 10 mL/kg body weight and saline at 10 mL/kg body weight were intravenously administered 5 days after tumor inoculation (N=10). Tumor volumes were measured every 2 to 5 days from 5 days after tumor inoculation. The tumor volume (mm^3) was measured in long diameter (mm)×short diameter (mm)×short diameter (mm)/2, and a significant difference test based on a Mann-Whitney U method (significance level: P<0.05) was conducted.

[5] = tested on: lung cancer-derived ASB-XIV cells; assay: Example 8: hCCR8-KI (KI/KI) mice inoculated with ASB-XIV cells, paclitaxel combination
Procedure: To an anti-human CCR8 antibody single administration group, an anti-human CCR8 antibody (humanized 10A11 antibody (light chain variable region: IGKV4-1 N53Q+G29R (SEQ ID NO: 59)/heavy chain variable region: IGHV3-15 T94R (SEQ ID NO: 41))) at 0.5 mg/10 mL/kg body weight and saline at 10 mL/kg body weight were intravenously administered 5 days after tumor inoculation (N=10). To a paclitaxel single administration group, saline at 10 mL/kg body weight and paclitaxel (trade name: TAXOL, Bristol-Myers Squibb Company) at 8 mg/10 mL/kg body weight were intravenously administered 5 days after tumor inoculation (N=10). To an anti-human CCR8 antibody and paclitaxel combined administration group, an anti-human CCR8 antibody at 0.5 mg/10 mL/kg body weight and paclitaxel at 8 mg/10 mL/kg body weight were intravenously administered 5 days after tumor inoculation (N=10). To a control group, saline was intravenously administered at 20 mL/kg 5 days after tumor inoculation (N=10). Tumor volumes were measured every 2 to 5 days from 5 days after tumor inoculation. The tumor volume (mm^3) was measured in long diameter (mm)×short diameter (mm)×short diameter (mm)/2, and a significant difference test based on a Student's T: one-sided test method (significance level: P<0.05) was conducted.

[6] = tested on: breast cancer-derived 4T1 cells; assay: Example 2: Balb/c mice inoculated with 4T1 cells, gemcitabine combination; conditions: antibody 50 μg iv days 5, 8; gemcitabine 50 mg/kg iv day 5; gemcitabine single 8, 12, 15, 18, 22 days, combined from 8 days; Mann-Whitney U
Procedure: as §1
as §2, with “10” for “11.4”, “gemcitabine” for “carboplatin”, “GEMZAR, Eli Lilly Inc.)” for “PARAPLATIN, Bristol-Myers Squibb Company)”, “50” for “114”

## N.N.O=C([O-])C1(C(=O)[O-])CCC1.[Pt+2] [carboplatin]
[1]
  tumor volume as compared to the control group: no significant difference
[2]
  tumor volume as compared to the control group: no significant difference

## N.N.[Cl][Pt][Cl] [cisplatin, reference compound]
[3]
  tumor volume as compared to the control group: significant decrease
[2]
  tumor volume as compared to the control group: no significant difference
[4]
  tumor volume as compared to the control group: no significant decrease

## CC(=O)O[C@H]1C(=O)[C@@]2(C)[C@H]([C@H](OC(=O)c3ccccc3)[C@]3(O)C[C@H](OC(=O)[C@H](O)[C@@H](NC(=O)c4ccccc4)c4ccccc4)C(C)=C1C3(C)C)[C@]1(OC(C)=O)CO[C@@H]1C[C@@H]2O [paclitaxel]
[5]; antibody 0.5 mg/kg iv and paclitaxel 8 mg/kg iv day 5, antibody single 10, 12, 14, 18 days, paclitaxel single 10 and 12 days, combined from 10 days, Student's T one-sided
  tumor volume as compared to the control group: significant decrease
[5]; paclitaxel 8 mg/kg iv day 5, 14 and 17 days after tumor inoculation
  tumor volume as compared to the control group, later time points: the significant difference disappeared

## Nc1ccn([C@@H]2O[C@H](CO)[C@@H](O)C2(F)F)c(=O)n1 [gemcitabine]
[6]
  tumor volume as compared to the control group: significant decrease
